According to patent US20250326725A1, “PI4-Kinase Inhibitors and Methods of Using the Same” (The Board of Trustees of the Leland Stanford Junior …, priority 2019, published 2025):

What was measured:
HCV = test: Anti-HCV assay (EC50); format: cell-based; conditions: Hepatitis C virus, read-out: HCV EC50
Description: Anti-HCV assay: Anti-HCV assays are performed as described by Cho et al. “Identification of a class of HCV inhibitors directed against the nonstructural protein NS4B.” Sci. Transl. Med. 2011; 2(15):15ra6.

EV71 = EV71 antiviral assay (EC50); format: cell-based, Enterovirus 71; conditions: Enterovirus A, EV71
[1] = Cell toxicity (CC50) in HRV assay; conditions: human, HRV CC50
[2] = Cell toxicity (CC50) in EV71 assay; conditions: EV71 CC50
EV68 = EV68 antiviral assay (EC50); format: cell-based
[3] = Cell toxicity (CC50) in EV68 assay; conditions: EV68 CC50

COc1ccc(-c2sc(NC(C)(C)C3CCOCC3)nc2C)cc1S(=O)(=O)Nc1ccc(Br)nc1F [Compound S-2]
EC50 (HCV): 0.0023 µM | EC50 (EV71): 0.0008 µM | CC50 [1]: 33.4 µM | CC50 [2]: 66.6 µM

COc1ccc(-c2sc(NC(C)(C)C3CCOCC3)nc2C)cc1S(=O)(=O)NC1CCC(O)CC1 (stereo not drawn) [Compound S-5]
EC50 (HCV): 0.0017 µM | EC50 (EV71): 0.0008 µM | CC50 [1]: 57 µM | CC50 [2]: 47.2 µM

COc1ccc(-c2sc(NC(C)(C)C3CCOCC3)nc2C)cc1S(=O)(=O)Nc1ccc(F)cc1C [Compound S-8]
EC50 (HCV): 0.0008 µM | EC50 (EV71): 0.0003 µM | CC50 [1]: 8.47 µM | CC50 [2]: 91.9 µM

COc1ccc(-c2sc(NC(C)(C)C3CCOCC3)nc2C)cc1S(=O)(=O)NC1CCN(C(=O)OC(C)(C)C)CC1 [Compound S-9]
EC50 (HCV): 0.005 µM | EC50 (EV71): 0.0048 µM | EC50 (EV68): 0.029 µM | CC50 [1]: 100 µM | CC50 [2]: 69.3 µM | CC50 [3]: 100 µM

COc1ccc(-c2sc(NC(C)(C)C3CCOCC3)nc2C)cc1S(=O)(=O)NC1CCS(=O)(=O)CC1 [Compound S-11]
EC50 (HCV): 0.0571 µM | EC50 (EV71): 0.0072 µM | EC50 (EV68): 3.83 µM | CC50 [1]: 40.7 µM | CC50 [2]: 26 µM | CC50 [3]: 43.3 µM

COc1ccc(-c2sc(NC(C)(C)C3CCOCC3)nc2C)cc1S(=O)(=O)NC1CCN(C(C)=O)CC1 [Compound S-12]
EC50 (HCV): 0.0175 µM | EC50 (EV71): 0.0041 µM | EC50 (EV68): 0.106 µM | CC50 [1]: 65.9 µM | CC50 [2]: 53.8 µM | CC50 [3]: 66.2 µM

COc1ccc(-c2sc(NC(C)(C)C3CCOCC3)nc2C)cc1S(=O)(=O)NC1CCN(S(C)(=O)=O)CC1 [Compound S-13]
EC50 (HCV): 0.0081 µM | EC50 (EV71): 0.0013 µM | EC50 (EV68): 0.0391 µM | CC50 [1]: 102 µM | CC50 [2]: 99.4 µM | CC50 [3]: 102 µM

COc1ccc(-c2sc(NC(C)(C)C3CCOCC3)nc2C)cc1S(=O)(=O)Nc1cccnc1C(F)(F)F [Compound S-15]
EC50 (HCV): 0.082 µM | EC50 (EV71): 0.0653 µM | EC50 (EV68): 0.335 µM | CC50 [1]: 100 µM | CC50 [2]: 100 µM | CC50 [3]: 63.7 µM

COc1ccc(-c2sc(NC3(C4CCOCC4)CC3)nc2C)cc1S(=O)(=O)Nc1cccnc1C [Compound S-16]
EC50 (HCV): 0.683 µM | EC50 (EV71): 0.568 µM | EC50 (EV68): 2.1 µM | CC50 [1]: 38.3 µM | CC50 [2]: 21.2 µM | CC50 [3]: 39.2 µM

COc1ccc(-c2sc(NC(C)(C)C3CCOCC3)nc2C)cc1S(=O)(=O)Nc1c(C)ncnc1C [Compound S-17]
EC50 (HCV): 0.0107 µM | EC50 (EV71): 0.0037 µM | EC50 (EV68): 0.0255 µM | CC50 [1]: 100 µM | CC50 [2]: 99.9 µM | CC50 [3]: 100 µM

COc1ccc(-c2sc(NC(C)(C)C3CCOCC3)nc2C)cc1S(=O)(=O)Nc1cccnc1OC [Compound S-18]
EC50 (HCV): 0.0119 µM | EC50 (EV71): 0.0044 µM | EC50 (EV68): 0.014 µM | CC50 [1]: 62.1 µM | CC50 [2]: 43.2 µM | CC50 [3]: 80 µM

COc1ccc(-c2sc(NC3(C4CCOCC4)CC3)nc2C)cc1S(=O)(=O)Nc1ccccc1Cl [Compound S-19]
EC50 (HCV): 0.0315 µM | EC50 (EV71): 0.0158 µM | EC50 (EV68): 22.1 µM | CC50 [1]: 37.7 µM | CC50 [2]: 18.3 µM | CC50 [3]: 39.4 µM

COc1ccc(-c2sc(NC(C)(C)C3CCOCC3)nc2C)cc1S(=O)(=O)NC1CCN(C(=O)OC(F)(F)F)CC1 [Compound S-20]
EC50 (HCV): 0.0257 µM | EC50 (EV71): 0.0036 µM | EC50 (EV68): 0.0507 µM | CC50 [1]: 49.4 µM | CC50 [2]: 18.9 µM | CC50 [3]: 51.6 µM

COc1ccc(-c2sc(NC(C)(C)C3CCN(C(C)=O)CC3)nc2C)cc1S(=O)(=O)Nc1cccnc1C [Compound S-21]
EC50 (HCV): 0.0024 µM | EC50 (EV71): 0.0031 µM | EC50 (EV68): 0.0107 µM | CC50 [1]: 87.6 µM | CC50 [2]: 91.3 µM | CC50 [3]: 94.8 µM

COc1ccc(-c2sc(NC(C)(C)C3CCOCC3)nc2C)cc1S(=O)(=O)Nc1c(F)cccc1CO [Compound S-22]
EC50 (HCV): 0.0027 µM | EC50 (EV71): 0.0008 µM | EC50 (EV68): 0.0048 µM | CC50 [1]: 15.5 µM | CC50 [2]: 16.5 µM | CC50 [3]: 19.3 µM

COc1ccc(-c2sc(NC(C)(C)C3CCOCC3)nc2C)cc1S(=O)(=O)Nc1cncnc1C [Compound S-23]
EC50 (HCV): 0.138 µM | EC50 (EV71): 0.049 µM | EC50 (EV68): 0.796 µM | CC50 [1]: 100 µM | CC50 [2]: 100 µM | CC50 [3]: 66.1 µM

COc1ccc(-c2sc(NC(C)(C)C3CCOCC3)nc2C)cc1S(=O)(=O)Nc1ncc[nH]1 [Compound S-24]
EC50 (HCV): 0.0037 µM | EC50 (EV71): 0.0046 µM | EC50 (EV68): 0.0111 µM | CC50 [1]: 9.62 µM | CC50 [2]: 73 µM | CC50 [3]: 13.4 µM

COc1ccc(-c2sc(NC(C)(C)C3CCOCC3)nc2C)cc1S(=O)(=O)Nc1ncccc1C [Compound S-25]
EC50 (HCV): 0.0206 µM | EC50 (EV71): 0.0141 µM | EC50 (EV68): 0.0931 µM | CC50 [1]: 24.8 µM | CC50 [2]: 90.7 µM | CC50 [3]: 24 µM
